The assay has as its target T1, CDK2 (Homo sapiens, UniProt P24941).
T1 construct: endogenous in cells; host or cells: OVCAR3 cells
In words: Phospho-RB measurement in OVCAR3 cells (HTRF phospho-RB S807/811). In kind it is cell-based. The settings on record: phosphorylation of RB protein at S807/811, HTRF, 24 h compound treatment, 0.3 to 10,000 nM, read-out: pRb (uM). A digest of the protocol: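 IC50 values come from four-parameter logistic fits of the DMSO-normalised 665/620 nm TR-FRET ratio for phospho-RB (S807/811). Antibody detection ran 4 h at room temperature.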
In general terms: TR-FRET usually uses a lanthanide donor and a delayed reading to cut background.

Turning to `O=S1(=O)C[C@@H]2[C@H](C1)[C@H]2Nc1nccc(-c2sc(N3C4CCC3CN(C3CC(F)(F)C3)C4)nc2-c2cccc(NS(=O)(=O)c3c(F)cccc3OC(F)F)c2F)n1` [Example 123, N-(3-(2-(3-(3,3-difluorocyclobutyl)-3,8-diazabicyclo[3.2.1]octan-8-yl)-5-(2-(((1R,5S,6r)-3,3-dioxido-3-thiabicyclo[3.1.0]hexan-6-yl)amino)pyrimidin-4-yl)thiazol-4-yl)-2-fluorophenyl)-2-(difluoromethoxy)-6-fluorobenzenesulfonamide], the IC50 was 0.17 µM.
In the case of `O=S1(=O)CC2(CC(Nc3nccc(-c4sc(N5CC6CCC(CC6)C5)nc4-c4cccc(NS(=O)(=O)c5c(F)cccc5F)c4F)n3)C2)C1` [Example 21], the IC50 is 0.24 µM.
Turning to `CN(C)C1CC2CCC(C1)N2c1nc(-c2cccc(NS(=O)(=O)c3c(F)cccc3F)c2F)c(-c2ccnc(NC3CC4(C3)CS(=O)(=O)C4)n2)s1` (centres unmarked) [Example 25, N-(3-(2-(3-(dimethylamino)-8-azabicyclo[3.2.1]octan-8-yl)-5-(2-((2,2-dioxido-2-thiaspiro[3.3]heptan-6-yl)amino)pyrimidin-4-yl)thiazol-4-yl)-2-fluorophenyl)-2,6-difluorobenzenesulfonamide], the IC50 was 1.55 µM.
As for `CC1(c2nc(-c3cccc(NS(=O)(=O)c4c(F)cccc4F)c3F)c(-c3ccnc(NC4CC5(C4)CS(=O)(=O)C5)n3)s2)CCNCC1` [Example 14, N-(3-(5-(2-((2,2-dioxido-2-thiaspiro[3.3]heptan-6-yl)amino)pyrimidin-4-yl)-2-(4-methylpiperidin-4-yl)thiazol-4-yl)-2-fluorophenyl)-2,6-difluorobenzenesulfonamide], the figure is 18.1 µM.
In the case of `O=S1(=O)C[C@@H]2[C@H](C1)[C@H]2Nc1nccc(-c2sc(C34CC(C3)C4)nc2-c2cccc(NS(=O)(=O)c3c(F)cccc3C(F)(F)F)c2F)n1` [Example 103, N-(3-(2-(bicyclo[1.1.1]pentan-1-yl)-5-(2-(((1R,5S,6r)-3,3-dioxido-3-thiabicyclo[3.1.0]hexan-6-yl)amino)pyrimidin-4-yl)thiazol-4-yl)-2-fluorophenyl)-2-fluoro-6-(trifluoromethyl)benzenesulfonamide], the IC50 is 0.1 µM.
For the compound `CN1CC2CCC(C1)N2c1nc(-c2cccc(NS(=O)(=O)c3c(F)cccc3OC(F)F)c2F)c(-c2ccnc(N[C@H]3[C@@H]4CS(=O)(=O)C[C@@H]43)n2)s1` [Example 122, 2-(difluoromethoxy)-N-(3-(5-(2-(((1R,5S,6r)-3,3-dioxido-3-thiabicyclo[3.1.0]hexan-6-yl)amino)pyrimidin-4-yl)-2-(3-methyl-3,8-diazabicyclo[3.2.1]octan-8-yl)thiazol-4-yl)-2-fluorophenyl)-6-fluorobenzenesulfonamide], the IC50 turned out to be 0.04 µM.
Consider `O=S1(=O)CC2(CC(Nc3nccc(-c4sc(C5(C(F)(F)F)CC5)nc4-c4cccc(NS(=O)(=O)c5c(F)cccc5F)c4F)n3)C2)C1` [Example 89, N-(3-(5-(2-((2,2-dioxido-2-thiaspiro[3.3]heptan-6-yl)amino)-pyrimidin-4-yl)-2-(1-(trifluoromethyl)cyclopropyl)thiazol-4-yl)-2-fluorophenyl)-2,6-difluorobenzenesulfonamide], for which the IC50 came to 0.12 µM.
Consider `O=S1(=O)C[C@@H]2[C@H](C1)[C@H]2Nc1nccc(-c2sc(C34CC(C3)C4)nc2-c2cccc(NS(=O)(=O)c3c(F)cccc3OC(F)F)c2F)n1` [Example 113, N-(3-(2-(bicyclo[1.1.1]pentan-1-yl)-5-(2-(((1R,5S,6r)-3,3-dioxido-3-thiabicyclo[3.1.0]hexan-6-yl)amino)pyrimidin-4-yl)thiazol-4-yl)-2-fluorophenyl)-2-(difluoromethoxy)-6-fluorobenzenesulfonamide], for which the IC50 worked out at 0.07 µM.
As for `O=S1(=O)C[C@@H]2[C@H](C1)[C@@H]2Nc1nccc(-c2sc(C34CCC(CC3)CC4)nc2-c2cccc(NS(=O)(=O)c3c(F)cccc3F)c2F)n1` [Example 119, N-(3-(2-(bicyclo[2.2.2]octan-1-yl)-5-(2-(((1R,5S,6s)-3,3-dioxido-3-thiabicyclo[3.1.0]hexan-6-yl)amino)pyrimidin-4-yl)thiazol-4-yl)-2-fluorophenyl)-2,6-difluorobenzenesulfonamide], the IC50 turned out to be 1.34 µM.
Take `O=S1(=O)CC2(CC(Nc3nccc(-c4sc(C5(C(F)(F)F)CC5)nc4-c4cccc(NS(=O)(=O)c5c(F)cccc5C(F)(F)F)c4F)n3)C2)C1` [Example 85, N-(3-(5-(2-((2,2-dioxido-2-thiaspiro[3.3]heptan-6-yl)amino)-pyrimidin-4-yl)-2-(1-(trifluoromethyl)cyclopropyl)thiazol-4-yl)-2-fluorophenyl)-2-fluoro-6-(trifluoromethyl)benzenesulfonamide]: the IC50 stood at 0.03 µM.
In the case of `O=S1(=O)C[C@@H]2[C@H](C1)[C@H]2Nc1nccc(-c2sc(N3C4CCC3CN(C3CC(F)(F)C3)C4)nc2-c2cccc(NS(=O)(=O)c3c(F)cccc3C(F)(F)F)c2F)n1` [Example 109, N-(3-(2-(3-(3,3-difluorocyclobutyl)-3,8-diazabicyclo[3.2.1]octan-8-yl)-5-(2-(((1R,5S,6r)-3,3-dioxido-3-thiabicyclo[3.1.0]hexan-6-yl)amino)pyrimidin-4-yl)thiazol-4-yl)-2-fluorophenyl)-2-fluoro-6-(trifluoromethyl)benzenesulfonamide], the IC50 was found to be 0.09 µM.
To `O=S1(=O)C[C@@H]2[C@H](C1)[C@@H]2Nc1nccc(-c2sc(C34CC(C3)C4)nc2-c2cccc(NS(=O)(=O)c3c(F)cccc3C(F)(F)F)c2F)n1` [Example 102, N-(3-(2-(bicyclo[1.1.1]pentan-1-yl)-5-(2-(((1R,5S,6s)-3,3-dioxido-3-thiabicyclo[3.1.0]hexan-6-yl)amino)pyrimidin-4-yl)thiazol-4-yl)-2-fluorophenyl)-2-fluoro-6-(trifluoromethyl)benzenesulfonamide] belongs 0.19 µM; to `CC1(O)CC(N2CC3CCC(C2)N3c2nc(-c3cccc(NS(=O)(=O)c4c(F)cccc4F)c3F)c(-c3ccnc(NC4CC5(C4)CS(=O)(=O)C5)n3)s2)C1` (centres unmarked) [Example 46, N-(3-(5-(2-((2,2-dioxido-2-thiaspiro[3.3]heptan-6-yl)amino)-pyrimidin-4-yl)-2-(3-(3-hydroxy-3-methylcyclobutyl)-3,8-diazabicyclo[3.2.1]octan-8-yl)thiazol-4-yl)-2-fluorophenyl)-2,6-difluorobenzenesulfonamide], 1.36 µM; to `O=S1(=O)CC2(CC(Nc3nccc(-c4sc(C56CC(F)(C5)C6)nc4-c4cccc(NS(=O)(=O)c5c(F)cccc5C(F)(F)F)c4F)n3)C2)C1` [Example 86, N-(3-(5-(2-((2,2-dioxido-2-thiaspiro[3.3]heptan-6-yl)amino)-pyrimidin-4-yl)-2-(3-fluorobicyclo[1.1.1]pentan-1-yl)thiazol-4-yl)-2-fluorophenyl)-2-fluoro-6-(trifluoromethyl)benzenesulfonamide], 0.04 µM.
Turning to `O=S1(=O)CC2(CC(Nc3nccc(-c4sc(N5C6CCC5CN(C5CC5)C6)nc4-c4cccc(NS(=O)(=O)c5c(F)cccc5C(F)(F)F)c4F)n3)C2)C1` [Example 82, N-(3-(2-(3-cyclopropyl-3,8-diazabicyclo[3.2.1]octan-8-yl)-5-(2-((2,2-dioxido-2-thiaspiro[3.3]heptan-6-yl)amino)pyrimidin-4-yl)thiazol-4-yl)-2-fluorophenyl)-2-fluoro-6-(trifluoromethyl)benzenesulfonamide], the IC50 turned out to be 0.13 µM.
On to `CN1CC2CCC(C1)N2c1nc(-c2cccc(NS(=O)(=O)c3c(F)cccc3C(F)(F)F)c2F)c(-c2ccnc(NC3CC4(C3)CS(=O)(=O)C4)n2)s1` [Example 51, N-(3-(5-(2-((2,2-dioxido-2-thiaspiro[3.3]heptan-6-yl)amino)-pyrimidin-4-yl)-2-(3-methyl-3,8-diazabicyclo[3.2.1]octan-8-yl)thiazol-4-yl)-2-fluorophenyl)-2-fluoro-6-(trifluoromethyl)-benzenesulfonamide], for which the IC50 was 0.04 µM.
`CC1(C)CCCN1c1nc(-c2cccc(NS(=O)(=O)c3c(F)cccc3F)c2F)c(-c2ccnc(NC3CC4(C3)CS(=O)(=O)C4)n2)s1` [Example 24, N-(3-(2-(2,2-dimethylpyrrolidin-1-yl)-5-(2-((2,2-dioxido-2-thiaspiro[3.3]heptan-6-yl)amino)pyrimidin-4-yl)thiazol-4-yl)-2-fluorophenyl)-2,6-difluorobenzenesulfonamide]: the IC50 is 1.46 µM.
`CN1CCC(C)(c2nc(-c3cccc(NS(=O)(=O)c4c(F)cccc4F)c3F)c(-c3ccnc(NC4CC5(C4)CS(=O)(=O)C5)n3)s2)CC1` [Example 15, N-(3-(2-(1,4-dimethylpiperidin-4-yl)-5-(2-((2,2-dioxido-2-thiaspiro[3.3]heptan-6-yl)amino)pyrimidin-4-yl)thiazol-4-yl)-2-fluorophenyl)-2,6-difluorobenzenesulfonamide]: the IC50 was 3.2 µM.
Consider `O=S1(=O)CC2(CC(Nc3nccc(-c4sc(N5C6CCC5CNC6)nc4-c4cccc(NS(=O)(=O)c5c(F)cccc5F)c4F)n3)C2)C1` [Example 141, N-(3-(2-(3,8-diazabicyclo[3.2.1]octan-8-yl)-5-(2-((2,2-dioxido-2-thiaspiro[3.3]heptan-6-yl)amino)pyrimidin-4-yl)thiazol-4-yl)-2-fluorophenyl)-2,6-difluorobenzenesulfonamide], for which the IC50 worked out at 6.7 µM.
As for `CC1(C#N)CC2CCC(C1)N2c1nc(-c2cccc(NS(=O)(=O)c3c(F)cccc3F)c2F)c(-c2ccnc(NC3CC4(C3)CS(=O)(=O)C4)n2)s1` (centres unmarked) [Example 33, N-(3-(2-(3-cyano-3-methyl-8-azabicyclo[3.2.1]octan-8-yl)-5-(2-((2,2-dioxido-2-thiaspiro[3.3]heptan-6-yl)amino)pyrimidin-4-yl)thiazol-4-yl)-2-fluorophenyl)-2,6-difluorobenzenesulfonamide], the figure is 0.1 µM.
